From ChEMBL document CHEMBL4190253, “Synthesis of novel 5-(aroylhydrazinocarbonyl)escitalopram as cholinesterase inhibitors” (Eur J Med Chem, 2017)

Tests used:
Cholinesterase = Cholinesterase (Equus caballus, UniProt P81908); assay: Inhibition of equine serum BCHE using butyrylthiocholine iodide as substrate preincubated for 10 mins followed by substrate addition measured after 30 mins by Ellman's method
[1] = biological target: Acetylcholinesterase (Electrophorus electricus) (UniProt O42275); assay: Inhibition of electric eel AChE at 0.5 mM using acetylthiocholine iodide as substrate preincubated for 10 mins followed by substrate addition measured after 30 mins by Ellman's method relative to control
Acetylcholinesterase (Electrophorus electricus), sequence (O42275 24-633 limits assumed): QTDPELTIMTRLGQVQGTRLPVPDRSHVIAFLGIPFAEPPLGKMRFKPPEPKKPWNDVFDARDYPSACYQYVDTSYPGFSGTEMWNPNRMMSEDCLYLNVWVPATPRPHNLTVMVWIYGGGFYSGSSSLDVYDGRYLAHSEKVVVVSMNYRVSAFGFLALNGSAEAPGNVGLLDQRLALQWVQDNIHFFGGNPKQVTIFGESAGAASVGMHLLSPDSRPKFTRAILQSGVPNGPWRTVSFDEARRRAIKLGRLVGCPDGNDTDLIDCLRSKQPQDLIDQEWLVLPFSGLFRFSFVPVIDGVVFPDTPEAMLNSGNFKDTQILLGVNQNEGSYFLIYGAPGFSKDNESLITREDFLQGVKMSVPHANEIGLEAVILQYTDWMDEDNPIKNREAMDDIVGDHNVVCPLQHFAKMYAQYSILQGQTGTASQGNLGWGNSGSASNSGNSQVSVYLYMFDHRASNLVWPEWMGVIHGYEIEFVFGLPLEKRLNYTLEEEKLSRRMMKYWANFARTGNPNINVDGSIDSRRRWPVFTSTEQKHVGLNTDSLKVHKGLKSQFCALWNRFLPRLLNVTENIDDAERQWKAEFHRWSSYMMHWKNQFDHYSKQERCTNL

[2] = Selectivity ratio of IC50 for electric eel AChE to IC50 for equine serum BCHE
[3] = biological target: Cholinesterase (Equus caballus) (UniProt P81908); assay: Inhibition of equine serum BCHE at 0.5 mM using butyrylthiocholine iodide as substrate preincubated for 10 mins followed by substrate addition measured after 30 mins by Ellman's method relative to control
Cholinesterase (Equus caballus), sequence (P81908 whole entry): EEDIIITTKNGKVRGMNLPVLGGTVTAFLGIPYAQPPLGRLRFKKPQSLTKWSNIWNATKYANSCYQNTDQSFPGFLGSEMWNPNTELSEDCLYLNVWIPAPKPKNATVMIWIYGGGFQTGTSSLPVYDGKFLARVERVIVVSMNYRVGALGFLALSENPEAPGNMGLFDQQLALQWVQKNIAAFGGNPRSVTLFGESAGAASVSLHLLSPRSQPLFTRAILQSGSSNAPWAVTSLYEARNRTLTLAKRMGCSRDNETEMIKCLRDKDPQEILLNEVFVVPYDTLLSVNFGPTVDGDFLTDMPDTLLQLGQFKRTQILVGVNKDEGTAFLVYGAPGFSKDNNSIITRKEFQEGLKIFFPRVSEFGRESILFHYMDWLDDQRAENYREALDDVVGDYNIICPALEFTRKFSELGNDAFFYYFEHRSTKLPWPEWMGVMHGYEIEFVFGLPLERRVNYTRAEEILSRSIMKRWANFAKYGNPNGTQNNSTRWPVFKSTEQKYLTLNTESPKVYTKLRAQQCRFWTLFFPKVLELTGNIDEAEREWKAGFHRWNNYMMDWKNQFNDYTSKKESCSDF

Acetylcholinesterase = Acetylcholinesterase (Electrophorus electricus, UniProt O42275); assay: Inhibition of electric eel AChE using acetylthiocholine iodide as substrate preincubated for 10 mins followed by substrate addition measured after 30 mins by Ellman's method
Acetylcholinesterase, sequence (O42275 whole entry): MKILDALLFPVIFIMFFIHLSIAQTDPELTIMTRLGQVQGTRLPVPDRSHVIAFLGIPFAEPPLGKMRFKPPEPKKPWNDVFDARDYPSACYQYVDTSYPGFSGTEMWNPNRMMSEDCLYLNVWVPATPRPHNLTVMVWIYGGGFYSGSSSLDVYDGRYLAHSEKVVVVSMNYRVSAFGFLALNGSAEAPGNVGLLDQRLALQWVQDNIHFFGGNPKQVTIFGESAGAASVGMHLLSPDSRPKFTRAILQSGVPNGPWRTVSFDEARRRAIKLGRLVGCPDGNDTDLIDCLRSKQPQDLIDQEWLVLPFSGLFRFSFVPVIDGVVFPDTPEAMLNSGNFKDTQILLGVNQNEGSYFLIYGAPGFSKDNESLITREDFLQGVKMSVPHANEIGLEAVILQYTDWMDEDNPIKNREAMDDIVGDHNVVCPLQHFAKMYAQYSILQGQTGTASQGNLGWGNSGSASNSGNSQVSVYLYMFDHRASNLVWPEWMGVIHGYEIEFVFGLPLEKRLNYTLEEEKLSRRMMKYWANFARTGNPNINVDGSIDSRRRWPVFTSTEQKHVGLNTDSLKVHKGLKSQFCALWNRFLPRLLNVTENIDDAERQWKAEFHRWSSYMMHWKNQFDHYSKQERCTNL

Cholinesterase, sequence (P81908 whole entry): as the sequence (P81908 whole entry) above

| SMILES | IC50 (Cholinesterase) [µM] | inhibition [1] [%] | Ratio IC50 [2] | inhibition [3] [%] | IC50 (Acetylcholinesterase) [µM] |
| --- | --- | --- | --- | --- | --- |
| CN(C)CCCC1(c2ccc(F)cc2)OCc2cc(C(=O)NNC(=O)c3ccc(Cl)cc3)ccc21 (stereo unspecified) | 138 | 86.1 | 0.04 | 78.4 | 6.71 |
| Cc1ccccc1C(=O)NNC(=O)c1ccc2c(c1)COC2(CCCN(C)C)c1ccc(F)cc1 (stereo unspecified) | 233 | 83.4 | 0.49 | 72.4 | 115 |
| CN(C)CCCC1(c2ccc(F)cc2)OCc2cc(C(=O)NNC(=O)c3ccc(I)cc3)ccc21 (stereo unspecified) | 5.88 | 76.4 | 35.7 | 85.5 | 210 |
| CN(C)CCCC1(c2ccc(F)cc2)OCc2cc(C(=O)NNC(=O)c3ccc([N+](=O)[O-])cc3)ccc21 (stereo unspecified) | 169 | 75.8 | 0.74 | 74.6 | 125 |
| CN(C)CCCC1(c2ccc(F)cc2)OCc2cc(C(=O)NNC(=O)c3ccccc3O)ccc21 (stereo unspecified) | 89 | 59 | 3.32 | 85.7 | 296 |
| CN(C)CCCC1(c2ccc(F)cc2)OCc2cc(C(=O)NNC(=O)c3ccc(Br)cc3)ccc21 (stereo unspecified) | 190 | 78.3 | 0.62 | 76.2 | 118 |
| CN(C)CCCC1(c2ccc(F)cc2)OCc2cc(C(=O)NNC(=O)c3ccc(O)cc3)ccc21 (stereo unspecified) | 192 | 84.6 | 0.61 | 73.2 | 117 |
| CNC(=O)Oc1ccc2c(c1)[C@]1(C)CCN(C)[C@@H]1N2C |  |  |  | 82.8 |  |
| CN(C)CCCC1(c2ccc(F)cc2)OCc2cc(C(=O)NNC(=O)c3cccc(O)c3)ccc21 (stereo unspecified) | 129 | 64.4 | 1.52 | 88.2 | 197 |
| CN(C)CCCC1(c2ccc(F)cc2)OCc2cc(C(=O)NNC(=O)c3ccccc3I)ccc21 (stereo unspecified) | 77.9 | 81.8 | 1.87 | 82.6 | 146 |
| COc1ccccc1C(=O)NNC(=O)c1ccc2c(c1)COC2(CCCN(C)C)c1ccc(F)cc1 (stereo unspecified) | 130 | 88.6 | 0.35 | 88.8 | 45.8 |
| CN(C)CCCC1(c2ccc(F)cc2)OCc2cc(C(=O)NNC(=O)c3ccccc3)ccc21 (stereo unspecified) | 75.8 | 69.8 | 3.53 | 81.5 | 268 |
| CN(C)CCCC1(c2ccc(F)cc2)OCc2cc(C(=O)NNC(=O)c3cccc(Br)c3)ccc21 (stereo unspecified) | 130 | 80.1 | 0.88 | 88.8 | 115 |
| CN(C)CCCC1(c2ccc(F)cc2)OCc2cc(C(=O)NNC(=O)c3ccc(N)cc3)ccc21 (stereo unspecified) | 5.98 | 83.2 | 21.6 | 85.5 | 129 |
| COc1cc(C(=O)NNC(=O)c2ccc3c(c2)COC3(CCCN(C)C)c2ccc(F)cc2)ccc1O (stereo unspecified) | 76.9 | 81.3 | 1.45 | 84.1 | 112 |
| Cc1cccc(C(=O)NNC(=O)c2ccc3c(c2)COC3(CCCN(C)C)c2ccc(F)cc2)c1 (stereo unspecified) | 88.7 | 82.6 | 1.32 | 85.7 | 117 |
| CN(C)CCCC1(c2ccc(F)cc2)OCc2cc(C(=O)NNC(=O)c3ccccc3Br)ccc21 (stereo unspecified) | 2.11 | 85.2 | 3.7 | 84.1 | 7.81 |
| CN(C)CCCC1(c2ccc(F)cc2)OCc2cc(C(=O)NNC(=O)c3ccccc3[N+](=O)[O-])ccc21 (stereo unspecified) | 76.3 | 70.3 | 3.35 | 84.1 | 256 |
| Cc1ccc(C(=O)NNC(=O)c2ccc3c(c2)COC3(CCCN(C)C)c2ccc(F)cc2)cc1 (stereo unspecified) | 158 | 69.7 | 1.69 | 76.6 | 268 |
| CN(C)CCCC1(c2ccc(F)cc2)OCc2cc(C(=O)NNC(=O)c3ccccc3N)ccc21 (stereo unspecified) | 68.2 | 84.5 | 1.72 | 84.4 | 118 |
| CN(C)CCCC1(c2ccc(F)cc2)OCc2cc(C(=O)NNC(=O)c3cccc(I)c3)ccc21 (stereo unspecified) | 70.2 | 83.7 | 1.81 | 85.4 | 127 |
| COc1ccc(C(=O)NNC(=O)c2ccc3c(c2)COC3(CCCN(C)C)c2ccc(F)cc2)cc1 (stereo unspecified) | 196 | 76.4 | 0.63 | 72.2 | 124 |
| CN(C)CCCC1(c2ccc(F)cc2)OCc2cc(C(=O)NNC(=O)c3ccccc3F)ccc21 (stereo unspecified) | 71.4 | 84.4 | 1.55 | 85.5 | 111 |
| CN(C)CCCC1(c2ccc(F)cc2)OCc2cc(C(=O)NNC(=O)c3ccccc3Cl)ccc21 (stereo unspecified) | 69.3 | 81.4 | 1.67 | 85.4 | 116 |
| CN(C)CCCC1(c2ccc(F)cc2)OCc2cc(C(=O)NNC(=O)c3cccc([N+](=O)[O-])c3)ccc21 (stereo unspecified) | 185 | 79.3 | 0.74 | 73.3 | 137 |
| CN(C)CCCC1(c2ccc(F)cc2)OCc2cc(C(=O)NNC(=O)c3cccc(Cl)c3)ccc21 (stereo unspecified) | 3.9 | 93.5 | 0.46 | 84 | 1.8 |
| CN(C)CCCC1(c2ccc(F)cc2)OCc2cc(C(=O)NNC(=O)c3ccc(F)cc3)ccc21 (stereo unspecified) | 179 | 86.6 | 0.63 | 74.6 | 112 |
| CN(C)CCCC1(c2ccc(F)cc2)OCc2cc(C(=O)NNC(=O)c3cccc(F)c3)ccc21 (stereo unspecified) | 185 | 77.1 | 0.76 | 73.3 | 141 |
